From US10399940B2, “Substituted pyrrolidines and methods of use” (AbbVie S.à.r.l., priority 2016, dated 2019)
Read-outs that look alike come from different tables or passages of the source.

Molecular target: T1, F508delCFTR (Homo sapiens, UniProt P13569, DEL508-508)
T1 construct: expressed in transfected cells; host or cells: CFBE41o- (human lung derived epithelial cell line), doxycycline-inducible expression
Assay: Cell Surface Expression-Horse Radish Peroxidase (CSE-HRP) assay
Assay type: cell-based
Details: CFBE41o-F508delCFTR-HRP cells; for Maximum % activity (with co-corrector): with co-corrector (2 μM); for Maximum % activity (with co-corrector) / Maximum % activity (without co-corrector): normalized to on-plate positive control, highest concentration 20 μM
Method in brief: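 Surface F508delCFTR-HRP was read by luminol luminescence after 18–24 h compound exposure at 33 °C, without or with 2 μM co-corrector. Doses were eight 3-fold steps from 20 μM, in doxycycline-induced (0.5 μg/mL, 72 h) CFBE41o- cells. % activity was scaled to the on-plate 2 μM positive control minus DMSO; EC50 came from a variable-slope sigmoid fit.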

[1] = test compound without co-corrector, 18-24 hours at 33° C., read-out: EC50 (without co-corrector)
[2] = with co-corrector (2 μM of 3-[(2R,4R)-4-({[1-(2,2-difluoro-1,3-benzodioxol-5-yl)cyclopropyl]carbonyl}amino)-7-methoxy-3,4-dihydro-2H-chromen-2-yl]benzoic acid), read-out: EC50 (with co-corrector)

T1 sequence (P13569 with tags, fused parts or gaps DEL508-508): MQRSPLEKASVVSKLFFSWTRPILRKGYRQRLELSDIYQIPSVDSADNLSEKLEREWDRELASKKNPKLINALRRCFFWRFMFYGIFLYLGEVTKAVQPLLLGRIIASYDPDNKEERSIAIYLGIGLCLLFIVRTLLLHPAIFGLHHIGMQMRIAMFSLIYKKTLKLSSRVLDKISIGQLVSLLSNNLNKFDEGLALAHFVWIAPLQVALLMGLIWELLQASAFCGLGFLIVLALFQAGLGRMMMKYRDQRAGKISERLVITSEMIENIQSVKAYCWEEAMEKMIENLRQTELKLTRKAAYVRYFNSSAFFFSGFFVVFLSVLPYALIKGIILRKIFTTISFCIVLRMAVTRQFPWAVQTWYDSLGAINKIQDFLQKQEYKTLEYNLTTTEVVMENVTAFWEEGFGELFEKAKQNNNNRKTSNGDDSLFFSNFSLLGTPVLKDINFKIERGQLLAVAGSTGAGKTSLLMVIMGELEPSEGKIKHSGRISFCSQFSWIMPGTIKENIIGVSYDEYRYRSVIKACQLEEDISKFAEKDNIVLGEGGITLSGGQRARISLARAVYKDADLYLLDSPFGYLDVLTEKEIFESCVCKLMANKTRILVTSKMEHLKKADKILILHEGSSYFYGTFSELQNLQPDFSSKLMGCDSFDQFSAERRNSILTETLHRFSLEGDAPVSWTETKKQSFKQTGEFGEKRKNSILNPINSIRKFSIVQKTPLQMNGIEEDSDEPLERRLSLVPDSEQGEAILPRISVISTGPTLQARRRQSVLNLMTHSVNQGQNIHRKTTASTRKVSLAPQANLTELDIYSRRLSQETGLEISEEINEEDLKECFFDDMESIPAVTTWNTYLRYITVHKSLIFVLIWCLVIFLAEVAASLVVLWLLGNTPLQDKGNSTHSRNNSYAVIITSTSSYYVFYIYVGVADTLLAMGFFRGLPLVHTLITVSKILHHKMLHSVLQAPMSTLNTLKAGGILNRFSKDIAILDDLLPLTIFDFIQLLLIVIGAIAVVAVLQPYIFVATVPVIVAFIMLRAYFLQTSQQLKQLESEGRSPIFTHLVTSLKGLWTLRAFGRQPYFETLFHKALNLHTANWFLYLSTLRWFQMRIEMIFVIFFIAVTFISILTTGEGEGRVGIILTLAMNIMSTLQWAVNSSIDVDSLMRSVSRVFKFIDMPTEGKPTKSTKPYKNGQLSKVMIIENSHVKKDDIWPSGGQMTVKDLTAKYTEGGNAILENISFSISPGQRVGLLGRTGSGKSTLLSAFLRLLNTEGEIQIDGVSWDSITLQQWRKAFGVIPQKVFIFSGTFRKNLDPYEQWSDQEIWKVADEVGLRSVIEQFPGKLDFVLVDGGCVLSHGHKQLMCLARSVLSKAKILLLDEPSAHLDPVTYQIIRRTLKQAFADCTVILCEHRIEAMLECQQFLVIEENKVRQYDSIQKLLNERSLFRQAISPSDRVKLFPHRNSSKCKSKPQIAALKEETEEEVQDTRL

| SMILES | EC50 [1] [nM] | EC50 [2] [nM] | Maximum % activity (with co-corrector) | Maximum % activity (without co-corrector) |
| --- | --- | --- | --- | --- |
| COc1nc2ccccc2cc1CO[C@H]1[C@H](C(C)(C)C)[C@@H](C(=O)O)N(C(=O)[C@@H]2CCCO2)[C@H]1c1ccnn1C(C)C [Example 148, (2S,3R,4S,5S)-3-tert-butyl-4-[(2-methoxyquinolin-3-yl)methoxy]-1-[(2S)-oxolane-2-carbonyl]-5-[1-(propan-2-yl)-1H-pyrazol-5-yl]pyrrolidine-2-carboxylic acid] | > 10000 | > 10000 | + (<150) | + (<100) |
| COc1ncc(C2CCC2)cc1CO[C@H]1[C@H](C(C)(C)C)[C@@H](C(=O)O)N(C(=O)[C@@H]2CCCO2)[C@H]1c1ccccc1C1CC1 [Example 149, (2S,3R,4S,5S)-3-tert-butyl-4-[(5-cyclobutyl-2-methoxypyridin-3-yl)methoxy]-5-(2-cyclopropylphenyl)-1-[(2S)-oxolane-2-carbonyl]pyrrolidine-2-carboxylic acid] | 1000 to 10000 | < 1000 | +++ (≥350) | ++ (≥100 and <200) |
| COc1ncc(C2CCC2)cc1CO[C@H]1[C@H](C(C)(C)C)[C@@H](C(=O)O)N(C(=O)C2CCOCC2)[C@H]1c1ccccc1C1CC1 [Example 150, (2S,3R,4S,5S)-3-tert-butyl-4-[(5-cyclobutyl-2-methoxypyridin-3-yl)methoxy]-5-(2-cyclopropylphenyl)-1-(oxane-4-carbonyl)pyrrolidine-2-carboxylic acid] | 1000 to 10000 | < 1000 | +++ (≥350) | ++ (≥100 and <200) |
| COc1nc2ccccc2cc1CO[C@H]1[C@H](C(C)(C)C)[C@@H](C(=O)O)N(C(=O)[C@@H]2CCCO2)[C@H]1c1ccccc1Br [Example 151, (2S,3R,4S,5S)-5-(2-bromophenyl)-3-tert-butyl-4-[(2-methoxyquinolin-3-yl)methoxy]-1-[(2S)-oxolane-2-carbonyl]pyrrolidine-2-carboxylic acid] | < 1000 | < 1000 | ++ (≥150 and <350) | + (<100) |
| CCOC(=O)N1[C@H](C(=O)O)[C@@H](C(C)(C)C)[C@H](OCc2cc(C(F)(F)F)cnc2OC)[C@@H]1c1cccc(C(C)(C)C)c1 [Example 152, (2S,3R,4S,5S)-3-tert-butyl-5-(3-tert-butylphenyl)-1-(ethoxycarbonyl)-4-{[2-methoxy-5-(trifluoromethyl)pyridin-3-yl]methoxy}pyrrolidine-2-carboxylic acid] | < 1000 | 1000 to 10000 | ++ (≥150 and <350) | + (<100) |
| COc1ncc(C(F)(F)F)cc1CO[C@H]1[C@H](C(C)(C)C)[C@@H](C(=O)O)N(C(=O)OC(C)C)[C@H]1c1cccc(C(C)(C)C)c1 [Example 153, (2S,3R,4S,5S)-3-tert-butyl-5-(3-tert-butylphenyl)-4-{[2-methoxy-5-(trifluoromethyl)pyridin-3-yl]methoxy}-1-{[(propan-2-yl)oxy]carbonyl}pyrrolidine-2-carboxylic acid] | < 1000 | < 1000 | ++ (≥150 and <350) | + (<100) |
| COc1ncc(C(F)(F)F)cc1CO[C@H]1[C@H](C(C)(C)C)[C@@H](C(=O)O)N(C(=O)[C@H]2C[C@@H]3CC[C@H]2O3)[C@H]1c1cccc(C(C)(C)C)c1 [Example 154, (2S,3R,4S,5S)-3-tert-butyl-5-(3-tert-butylphenyl)-4-{[2-methoxy-5-(trifluoromethyl)pyridin-3-yl]methoxy}-1-[(1R,2S,4S)-7-oxabicyclo[2.2.1]heptane-2-carbonyl]pyrrolidine-2-carboxylic acid] | < 1000 | < 1000 | ++ (≥150 and <350) | + (<100) |
| COc1ncc(C2CCC2)cc1CO[C@H]1[C@H](C(C)(C)C)[C@@H](C(=O)O)N(C(=O)[C@@H]2CCCO2)[C@H]1c1ccccc1C(F)(F)F [Example 155, (2S,3R,4S,5S)-3-tert-butyl-4-[(5-cyclobutyl-2-methoxypyridin-3-yl)methoxy]-1-[(2S)-oxolane-2-carbonyl]-5-[2-(trifluoromethyl)phenyl]pyrrolidine-2-carboxylic acid] | 1000 to 10000 | < 1000 | +++ (≥350) | ++ (≥100 and <200) |
| COc1ncc(C(F)(F)F)cc1CO[C@H]1[C@H](C(C)(C)C)[C@@H](C(=O)O)N(C(=O)[C@@H]2CCCO2)[C@H]1c1ccccc1C(F)(F)F [Example 156, (2S,3R,4S,5S)-3-tert-butyl-4-{[2-methoxy-5-(trifluoromethyl)pyridin-3-yl]methoxy}-1-[(2S)-oxolane-2-carbonyl]-5-[2-(trifluoromethyl)phenyl]pyrrolidine-2-carboxylic acid] | 1000 to 10000 | < 1000 | +++ (≥350) | ++ (≥100 and <200) |
| COc1ncc(C(F)(F)F)cc1CO[C@H]1[C@H](C(C)(C)C)[C@@H](C(=O)O)N(C(=O)[C@@H]2CCCCO2)[C@H]1c1cccc(C(C)(C)C)c1 [Example 158, (2S,3R,4S,5S)-3-tert-butyl-5-(3-tert-butylphenyl)-4-{[2-methoxy-5-(trifluoromethyl)pyridin-3-yl]methoxy}-1-[(2S)-oxane-2-carbonyl]pyrrolidine-2-carboxylic acid] | < 1000 | < 1000 | +++ (≥350) | ++ (≥100 and <200) |
| COc1ncc(C(F)(F)F)cc1CO[C@H]1[C@H](C(C)(C)C)[C@@H](C(=O)O)N(C(=O)[C@@H]2CCCO2)[C@H]1c1ccccc1Br [Example 159, (2S,3R,4S,5S)-5-(2-bromophenyl)-3-tert-butyl-4-{[2-methoxy-5-(trifluoromethyl)pyridin-3-yl]methoxy}-1-[(2S)-oxolane-2-carbonyl]pyrrolidine-2-carboxylic acid] | < 1000 | < 1000 | +++ (≥350) | + (<100) |
| COc1ncc(C(F)(F)F)cc1CO[C@H]1[C@H](C(C)(C)C)[C@@H](C(=O)O)N(C(=O)C2CCC2)[C@H]1c1cccnc1OC(C)C [Example 160, (2S,3R,4S,5S)-3-tert-butyl-1-(cyclobutanecarbonyl)-4-{[2-methoxy-5-(trifluoromethyl)pyridin-3-yl]methoxy}-5-{2-[(propan-2-yl)oxy]pyridin-3-yl}pyrrolidine-2-carboxylic acid] | 1000 to 10000 | 1000 to 10000 | ++ (≥150 and <350) | + (<100) |
| COc1ncc(C2CCC2)cc1CO[C@H]1[C@H](C(C)(C)C)[C@@H](C(=O)O)N(C(=O)C2CCC2)[C@H]1c1cccnc1OC(C)C [Example 161, (2S,3R,4S,5S)-3-tert-butyl-1-(cyclobutanecarbonyl)-4-[(5-cyclobutyl-2-methoxypyridin-3-yl)methoxy]-5-{2-[(propan-2-yl)oxy]pyridin-3-yl}pyrrolidine-2-carboxylic acid] | 1000 to 10000 | 1000 to 10000 | +++ (≥350) | + (<100) |
